Values quoted from earlier work, collected in patent publication US20140080864A1, “PHARMACETUICAL COMPOSITION COMPRISING DROTAVERINE” (CHINOIN PRIVATE CO LTD, priority 2011, published 2014).
Structures can show the parent of a compound that is named as a salt.

Conditions: oral dose, healthy individuals; mean SD

- absolute bioavailability (mean): 58.2%
SMILES: CCOc1ccc(/C=C2\NCCc3cc(OCC)c(OCC)cc32)cc1OCC [drotaverine hydrochloride, 1-(3,4-diethoxybenzylidene)-6,7-diethoxy-1,2,3,4-tetrahydroisoquinoine]
